# Data reported in patent US6797721B2, “Phorboxazole derivatives for treating cancer” (Parker Hughes Institute, priority 1999, dated 2004).
# What was measured:
# [1] = test system: NALM-6 B-lineage ALL cells; experiment: Clonogenic assay, NALM-6; format: cell-based, human; conditions: 7 days
# Description: The growth-inhibiting activity of the synthetic Phorboxazole A and the synthesized derivatives was tested in clonogenic assays. Cancer cells were treated with 1 nM, 10 nM, and 100 nM doses of synthetic Phorboxazole A or derivatives of phorboxazole A. Treated cells included U373 human glioblastoma cells, NALM-6, human B-lineage acute lymphoblastic leukemia cells, and BT-20 human breast cancer cells. The cancer cells were resuspended in clonogenic medium consisting of alpha-MEM supplemented with 0.9% methylcellulose, 30% fetal bovine serum, and 50 μM 2-mercaptoethanol. Cells were plated in duplicate Petri dishes at 100,000 cells/mL/dish and cultured in a humidified 5% CO2 incubator for 7 days. Cancer cell colonies were enumerated on a grid using an inverted phase microscope of high optical resolution. Results were expressed as % inhibition of clonogenic cells at a particular concentration of the test agent using the formula:
# % Inhibition=(1−Mean # of colonies [Test]/Mean # of colonies [Control]×100.
# [2] = test system: BT-20 human breast cancer cells; experiment: MTT cytotoxicity assay, BT-20; format: cell-based; conditions: BT-20 (breast cancer), 24-36 hours, read-out: IC50 [MTT]
# Description: The cytotoxicity assay of synthetic Phorboxazole A and various derivative compounds against human tumor cells was performed using the MTT (3-[4,5-dimethylthiazol-2-yl]-2,5-diphenyl tetrazolium bromide) assay (Boehringer Mannheim Corp., Indianapolis, Ind.). Briefly, exponentially growing brain tumor cells were seeded into a 96-well plate at a density of 2.5×10^4 cells/well and incubated for 36 hours at 37° C. prior to drug exposure. On the day of treatment, culture medium was carefully aspirated from the wells and replaced with fresh medium containing the various phorboxazole A derivative compounds as well as the tyrosine kinase inhibitory isoflavone genistein (GEN) at concentrations ranging from 0.1 to 250 μM. Triplicate wells were used for each treatment.
# Human glioblastoma cells U373 (brain cancer), human B-lineage acute lymphoblastic leukemia cells NALM-6, and human breast cancer cells BT-20 were obtained from American Type Culture Collection (Rockville, Md.) and maintained as a continuous cell line in Dulbecco's modified Eagles's medium supplemented with 10% fetal bovine serum and antibiotics.
# The cells were incubated with the various compounds for 24-36 hours at 37° C. in a humidified 5% CO2 atmosphere. To each well, 10 μl of MTT (0.5 mg/ml final concentration) was added and the plates were incubated at 37° C. for 4 hours to allow MTT to form formazan crystals by reacting with metabolically active cells. The fonnazan crystals were solubilized overnight at 37° C. in a solution containing 10% SDS in 0.01 M HCl. The absorbance of each well was measured in a microplate reader (Labsystems) at 540 nm and a reference wavelength of 690 nm. To translate the OD540 values into the number of live cells in each well, the OD540 values were compared to those on standard OD540-versus-cell number curves generated for each cell line. The percent survival was calculated using the formula: [formula]
# The IC50 values were calculated by non-linear regression analysis.
# [3] = test system: human breast cancer cell line BT-20; experiment: In situ detection of apoptosis (nick-end-labeling, confocal microscopy); format: cell-based; conditions: final concentration of 100 μM, 24 hours
# Description: The synthetic Phorboxazole A and the synthetic analogs were also assayed for apoptosis-inducing activity. Assay for apoptosis was performed by the in situ nick-end-labeling method using an ApopTag in situ detection kit (Oncor, Gaithersburg, Md.) according to the manufacturer's reconmmendations. Immunofluorescence was used to examine the morphologic features of human breast cancer cell line BT-20 (American Type Culture Collection Rockville, Md.) treated with the novel phorboxazole A derivatives of the present invention.
# Cells were trypsinized from rapidly growing tissue culture flasks and seeded onto sterile 22 mm^2 coverslips in 6-well culture plates. Cells on coverslips were returned to the incubator for 24 hours prior to treatment. The phorboxazole A derivatives were added to the cells from a stock solution made in DMSO to a final concentration of 100 μM. Final DMSO concentration were kept at 0.1% in both test samples and controls. Cells were returned to a 37° C. incubation for 24 hours before further processing. At 24 hours, coverslips were fixed in −20° C. methanol for 15 minutes followed by a 15 minute incubation in phosphate buffered saline +0.1% Triton X-100 (PBS-Tx). Coverslips were then incubated with a monoclonal antibody against α-tubulin (Sigma Chemical Co., St. Louis, Mo.) at a dilution of 1:1000 for 40 minutes in a humidified chamber at 37° C. Coverslips were washed for 15 minutes in PBS-Tx followed by a 40 minute incubation with goat anti-mouse IgG antibody conjugated to FITC (Amersham Corp., Arlington Heights, Ill.). The coverslips were again rinsed in PBS-Tx and incubated with 5 μM TOTO-3 (Molecular Probes, Eugene, Oreg.) for 20 minutes to label the nuclear DNA. Coverslips were immediately inverted onto slides in Vectashield (Vector Labs, Burlingame) to prevent photobleaching, sealed with nail varnish and stored at 4° C.
# Slides were examined using a Bio-Rad MRC-1024 Laser Scanning Confocal Microscope mounted on a Nikon Eclipse E800 upright microscope with high numerical aperture objectives. […]
structure (smiles),measurement,setting,value
"C=C1C[C@@H]2C[C@@H]3C[C@@H](O)C[C@@H](O3)c3coc(n3)/C=C/C[C@H]3O[C@@H](/C(C)=C/c4coc(C[C@]5(O)C[C@H](OC)C[C@H]([C@H](O)/C=C(C)/C=C/[C@@H](C/C=C/Br)OC)O5)n4)[C@H](C)[C@@H](OC(=O)/C=C\C[C@@H](C1)O2)[C@H]3C [Compound 1, Phorboxazole A]",Mean Number Colonies/10^4 cells,[1]; 1 nM,270
same,Mean Number Colonies/10^4 cells,[1]; 10 nM,0
same,Mean Number Colonies/10^4 cells,[1]; 100 nM,0
same,inhibition at 0.001 µM,"[1]; Homo sapiens, 168 h, 1 nM, read-out: Inhibition of clonogenic growth",86.8%
same,inhibition at 0.01 µM,"[1]; Homo sapiens, 168 h, 10 nM, read-out: Inhibition of clonogenic growth",> 99.9%
same,inhibition at 0.1 µM,"[1]; Homo sapiens, 168 h, 100 nM, read-out: Inhibition of clonogenic growth",> 99.9%
same,IC50,[2],3.4 nM
same,Apoptosis-inducing activity,[3],apoptotic activity
